According to patent US20100075907A1, “NEUROMEDIN U RECEPTOR AGONISTS AND USES THEREOF” (priority 2006, published 2010):
Starred links: 1 amine or outer side, 2 acyl side, 3 side chain; linkers in the order of their positions; H or OH if unused. Non-standard residues stand in square brackets, D forms with d. Residues, ends and D or L forms follow the SMILES beside them. *: point of attachment. X1 = CC(C)CCC[C@@H](C)[C@H]1CC[C@H]2[C@@H]3CC=C4C[C@@H](OC(=O)C*)CC[C@]4(C)[C@H]3CC[C@]12C; X2 = CCN1C(=O)CC(SC[C@H](NC(C)=O)C(=O)NCCCOCCOCCOCCCN*)C1=O; Succinimide(1-Et,3-yl) = CCN1C(=O)CC(*)C1=O; Suc = O=C(CCC(=O)[*:2])[*:1]

Assays:
mouse NMUR1-ATG = molecular target: T1, mouse NMUR1-ATG (Mus musculus, UniProt O55040); experiment: FLIPR calcium mobilization assay, mouse NMUR1-ATG; type: cell-based; design: expressed in transfected cells; host or cells: FLP-In CHO or HEK-293 FLP-In cells (pcDNA5)
T1 sequence (O55040 1-428): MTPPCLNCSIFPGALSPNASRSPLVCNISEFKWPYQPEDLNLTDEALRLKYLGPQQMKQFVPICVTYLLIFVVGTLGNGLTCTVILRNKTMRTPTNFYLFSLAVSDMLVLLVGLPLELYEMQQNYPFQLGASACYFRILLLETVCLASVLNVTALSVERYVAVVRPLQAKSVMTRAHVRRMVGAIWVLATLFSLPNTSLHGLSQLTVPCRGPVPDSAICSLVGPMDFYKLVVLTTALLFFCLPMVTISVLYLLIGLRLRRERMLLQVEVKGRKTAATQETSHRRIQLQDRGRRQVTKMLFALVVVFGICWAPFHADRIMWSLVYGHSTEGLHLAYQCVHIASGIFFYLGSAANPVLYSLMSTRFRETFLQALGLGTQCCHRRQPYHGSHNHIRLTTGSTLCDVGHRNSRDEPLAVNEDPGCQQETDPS
From the text: (§1) Human, mouse or rat cDNAs encoding NMUR1 or NMUR2 (as described in Howard et al. Nature 406: 70-74 (2000) were subcloned in pcDNA5 (Invitrogen) and transfected into FLP-In CHO cells and HEK-293 FLP-In cells purchased from Invitrogen (Carlsbad, Calif.) using lipofectamine (Invitrogen). The Flp-In system allows integration and expression of a particular gene of interest at a specific genomic location utilizing the Flp recombinase from yeast. The transfected cells were selected by growth in medium containing 200 μg/mL hygromycin (Invitrogen). Populations were frozen at early passage numbers, and these stocks were used for further studies. Stable clones that expressed the mRNAs were identified functionally by FLIPR as well as by RT-PCR. […] Two different rodent NMUR1 cell lines were thus generated: one with the codon as predicted from the genomic databases and another cell line with an engineered methionine (ATG) as the start codon. Additionally, stable cell lines expressing the human receptors were generated in HEK-293/aeq17 cells which stably express the aequorin gene under the CMV promoter. The human NMUR2 cDNA was cloned into pcDNA3.1 and human NMUR1 was subcloned into pIRES-puro (Clontech, Mountain View, Calif.), after transfection cells were selected in media containing G418 and either hygromycin (NMUR2) or puromycin (NMUR1).
(§2) The NMU receptors signal primarily through Gαq/11 proteins; therefore calcium mobilization assays can be utilized for functional activity.
(§3) Stable cell lines expressing human and or rodent NMUR1 or human NMUR2 receptors were plated at a density of 12,000 cells per well overnight on poly-lysine coated 384-well black-walled plates. The following day, the media was removed from the plates and the cells were subsequently loaded with Fluo-3 (Molecular Probes), a calcium sensitive dye, diluted in FLIPR buffer (1× Hank's buffered saline containing 20 mM HEPES, 0.1% BSA, 2.5 mM probenecid (Sigma) and 1.6 mM TR40). All reagents are from Invitrogen unless otherwise noted. Peptide stocks were resuspended in DMSO at a stock concentration of 2 mM and diluted in FLIPR buffer on the day of the experiment to a 4 μM working stock solution.
(§4) After a 90 minute incubation at room-temperature, cell plates were loaded onto a FLIPR (Molecular Devices) to monitor cellular fluorescence (excitation=488 nm; emission=540 nm) before and after compound/peptide addition. Eight to twelve point dose responses were tested on NMUR-expressing cell lines using FLIPR with 1 μM peptide as the highest dose. The response after peptide addition was taken as the maximum fluorescence units minus the fluorescence immediately prior to stimulation for each well. EC50 values were calculated using GraphPad Prism (San Diego, Calif.) software.
(§5) In vitro responses of Neuromedin U receptor agonists (NMU1 to NMU25) in the FLIPR assay for human (Table 3), mouse (Table 4) and rat (Table 5) NMUR1 and NMUR2. EC50s are reported in nM values. Percent activity refers to the maximum response at 1 μM compared to the hNMU-25 response at the same concentration. NT=not tested.

rat NMUR1-ATG = molecular target: T2, rat NMUR1-ATG (Rattus norvegicus, UniProt Q9JJI5); experiment: FLIPR calcium mobilization assay, rat NMUR1-ATG; type: cell-based; design: expressed in transfected cells; host or cells: FLP-In CHO or HEK-293 FLP-In cells (pcDNA5)
T2 sequence (Q9JJI5 1-425): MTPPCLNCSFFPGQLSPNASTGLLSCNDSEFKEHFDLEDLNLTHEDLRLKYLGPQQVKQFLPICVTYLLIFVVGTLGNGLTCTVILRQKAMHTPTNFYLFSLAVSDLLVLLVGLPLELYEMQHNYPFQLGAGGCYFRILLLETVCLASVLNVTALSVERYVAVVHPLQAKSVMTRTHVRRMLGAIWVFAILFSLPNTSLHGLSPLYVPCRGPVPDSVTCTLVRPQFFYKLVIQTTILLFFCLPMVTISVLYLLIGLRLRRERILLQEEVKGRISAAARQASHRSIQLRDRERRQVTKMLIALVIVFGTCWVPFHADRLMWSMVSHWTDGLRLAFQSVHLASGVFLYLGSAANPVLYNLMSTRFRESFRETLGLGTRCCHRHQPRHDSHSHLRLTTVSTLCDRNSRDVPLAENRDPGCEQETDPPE
From the text: as §1, §2, §3, §4, §5

[1] = functional, mouse R1-ATG, relative to native hNMU responses
[2] = functional, rat R1-ATG, relative to native hNMU responses
[3] = maximum response at 1 μM compared to hNMU-25, mouse NMUR1-ATG
[4] = maximum response at 1 μM compared to hNMU-25, rat NMUR1-ATG

Row | SMILES | IC50 (mouse NMUR1-ATG; functional data, mouse R1-ATG) [nM] | % Activity (mouse NMUR1-ATG; [1]) [%] | IC50 (rat NMUR1-ATG; functional data, rat R1-ATG) [nM] | % Activity (rat NMUR1-ATG; [2]) [%] | % Activity (mouse NMUR1-ATG; [3]) [%] | EC50 (rat NMUR1-ATG; FLIPR, rat NMUR1-ATG) [nM] | % Activity (rat NMUR1-ATG; [4]) [%]
1 | CC(C)C[C@@H](NC(=O)[C@H](Cc1ccccc1)NC(=O)[C@H](Cc1ccc(O)cc1)NC(=O)CNC(=O)[C@H](CCCNC(=N)N)NC(=O)[C@H](CO)NC(=O)[C@H](CCC(N)=O)NC(=O)[C@H](CO)NC(=O)[C@H](C)NC(=O)[C@H](Cc1ccccc1)NC(=O)[C@@H]1CCCN1C(=O)[C@H](CO)NC(=O)[C@H](CCC(N)=O)NC(=O)[C@H](Cc1ccccc1)NC(=O)[C@H](CCC(=O)O)NC(=O)[C@H](CCC(=O)O)NC(=O)[C@H](CC(=O)O)NC(=O)[C@@H](NC(=O)[C@H](CCCNC(=N)N)NC(=O)[C@@H](N)Cc1ccccc1)C(C)C)C(=O)N[C@@H](Cc1c[nH]c2ccccc12)C(=O)N[C@@H](CCCNC(=N)N)C(=O)N1CCC[C@H]1C(=O)N[C@@H](CCCNC(=N)N)C(=O)N[C@@H](CC(N)=O)C(N)=O [Agonist H] (H-FRVDEEFQSPFASQSRGYF[dL]WRPRN-NH2; N-terminus assumed) | 25 | 90 | 31.1 | 95 |  |  | 
2 | CCN1C(=O)CC(SC[C@H](NC(C)=O)C(=O)NCC(=O)N[C@@H](Cc2ccc(O)cc2)C(=O)N[C@@H](Cc2ccccc2)C(=O)N[C@@H](CC(C)C)C(=O)N[C@@H](Cc2ccccc2)C(=O)N[C@@H](CCCNC(=N)N)C(=O)N2CCC[C@H]2C(=O)N[C@@H](CCCNC(=N)N)C(=O)N[C@@H](CC(N)=O)C(N)=O)C1=O (stereo partly drawn) [NMU6] (Ac-C(Succinimide(1-Et,3-yl))GYFLFRPRN-NH2) |  |  |  |  | 100 | 1 | 100
3 | CCN1C(=O)CC(SC[C@H](NC(C)=O)C(=O)N[C@@H](Cc2ccccc2)C(=O)N[C@@H](CCCNC(=N)N)C(=O)N[C@H](C(=O)N[C@@H](CC(=O)O)C(=O)N[C@@H](CCC(=O)O)C(=O)N[C@@H](CCC(=O)O)C(=O)N[C@@H](Cc2ccccc2)C(=O)N[C@@H](CCC(N)=O)C(=O)N[C@@H](CO)C(=O)N2CCC[C@H]2C(=O)N[C@@H](Cc2ccccc2)C(=O)N[C@@H](C)C(=O)N[C@@H](CO)C(=O)N[C@@H](CCC(N)=O)C(=O)N[C@@H](CO)C(=O)N[C@@H](CCCNC(=N)N)C(=O)NCC(=O)N[C@@H](Cc2ccc(O)cc2)C(=O)N[C@@H](Cc2ccccc2)C(=O)N[C@@H](CC(C)C)C(=O)N[C@@H](Cc2ccccc2)C(=O)N[C@@H](CCCNC(=N)N)C(=O)N2CCC[C@H]2C(=O)N[C@@H](CCCNC(=N)N)C(=O)N[C@@H](CC(N)=O)C(N)=O)C(C)C)C1=O (stereo partly drawn) [NMU8] (Ac-C(Succinimide(1-Et,3-yl))FRVDEEFQSPFASQSRGYFLFRPRN-NH2) |  |  |  |  | 100 |  | 97.2
4 | CC(=O)N[C@@H](CSCC(=O)O[C@H]1CC[C@@]2(C)C(=CC[C@H]3[C@@H]4CC[C@H]([C@H](C)CCCC(C)C)[C@@]4(C)CC[C@@H]32)C1)C(=O)NCC(=O)N[C@@H](Cc1ccc(O)cc1)C(=O)N[C@@H](Cc1ccccc1)C(=O)N[C@@H](CC(C)C)C(=O)N[C@@H](Cc1ccccc1)C(=O)N[C@@H](CCCNC(=N)N)C(=O)N1CCC[C@H]1C(=O)N[C@@H](CCCNC(=N)N)C(=O)N[C@@H](CC(N)=O)C(N)=O [NMU11] (Ac-C(X1)GYFLFRPRN-NH2) |  |  |  |  | 81.3 |  | 50.9
5 | CCN1C(=O)CC(SC[C@H](NC(C)=O)C(=O)N[C@@H](Cc2ccccc2)C(=O)N[C@@H](CCCNC(=N)N)C(=O)N[C@H](C(=O)N[C@@H](CC(=O)O)C(=O)N[C@@H](CCC(=O)O)C(=O)N[C@@H](CCC(=O)O)C(=O)N[C@@H](Cc2ccccc2)C(=O)N[C@@H](CCC(N)=O)C(=O)N[C@@H](CO)C(=O)N2CCC[C@H]2C(=O)N[C@@H](Cc2ccccc2)C(=O)N[C@@H](C)C(=O)N[C@@H](CO)C(=O)N[C@@H](CCC(N)=O)C(=O)N[C@@H](CO)C(=O)N[C@@H](CCCNC(=N)N)C(=O)NCC(=O)N[C@@H](Cc2ccc(O)cc2)C(=O)N[C@@H](Cc2ccccc2)C(=O)N[C@H](C)C(=O)N[C@@H](Cc2c[nH]c3ccccc23)C(=O)N[C@@H](CCCNC(=N)N)C(=O)N2CCC[C@H]2C(=O)N[C@@H](CCCNC(=N)N)C(=O)N[C@@H](CC(N)=O)C(N)=O)C(C)C)C1=O (stereo partly drawn) [NMU13] (Ac-C(Succinimide(1-Et,3-yl))FRVDEEFQSPFASQSRGYF[dA]WRPRN-NH2) |  | 96 |  | 92 | 98.6 |  | 100
6 | CCN1C(=O)CC(SC[C@H](NC(C)=O)C(=O)NCCCOCCOCCOCCCNC(=O)CCC(=O)N[C@@H](Cc2ccccc2)C(=O)N[C@@H](CC(C)C)C(=O)N[C@@H](Cc2ccccc2)C(=O)N[C@@H](CCCNC(=N)N)C(=O)N2CCC[C@H]2C(=O)N[C@@H](CCCNC(=N)N)C(=O)N[C@@H](CC(N)=O)C(N)=O)C1=O (stereo partly drawn) [NMU15, Ac-C1-Ttds-FLFRPRN-CONH2] ({X2-Suc}-FLFRPRN-NH2) |  |  |  |  | 100 |  | 100
7 | CCN1C(=O)CC(SC[C@H](NC(C)=O)C(=O)N[C@@H](C)C(=O)N[C@@H](CO)C(=O)N[C@@H](CCC(N)=O)C(=O)N[C@@H](CO)C(=O)N[C@@H](CCCNC(=N)N)C(=O)NCC(=O)N[C@@H](Cc2ccc(O)cc2)C(=O)N[C@@H](Cc2ccccc2)C(=O)N[C@@H](CC(C)C)C(=O)N[C@@H](Cc2ccccc2)C(=O)N[C@@H](CCCNC(=N)N)C(=O)N2CCC[C@H]2C(=O)N[C@@H](CCCNC(=N)N)C(=O)N[C@@H](CC(N)=O)C(N)=O)C1=O (stereo partly drawn) [NMU17] (Ac-C(Succinimide(1-Et,3-yl))ASQSRGYFLFRPRN-NH2) |  |  |  |  | 100 |  | 100
8 | CCN1C(=O)CC(SC[C@H](NC(C)=O)C(=O)N[C@@H](Cc2ccccc2)C(=O)N[C@@H](CCC(N)=O)C(=O)N[C@@H](CO)C(=O)N2CCC[C@H]2C(=O)N[C@@H](Cc2ccccc2)C(=O)N[C@@H](C)C(=O)N[C@@H](CO)C(=O)N[C@@H](CCC(N)=O)C(=O)N[C@@H](CO)C(=O)N[C@@H](CCCNC(=N)N)C(=O)NCC(=O)N[C@@H](Cc2ccc(O)cc2)C(=O)N[C@@H](Cc2ccccc2)C(=O)N[C@@H](CC(C)C)C(=O)N[C@@H](Cc2ccccc2)C(=O)N[C@@H](CCCNC(=N)N)C(=O)N2CCC[C@H]2C(=O)N[C@@H](CCCNC(=N)N)C(=O)N[C@@H](CC(N)=O)C(N)=O)C1=O (stereo partly drawn) [NMU19] (Ac-C(Succinimide(1-Et,3-yl))FQSPFASQSRGYFLFRPRN-NH2) |  |  |  |  | 100 |  | 100
